Assay results from patent US20250092001A1, “NOVEL EXCITATORY AMINO ACID GLUTAMATE TRANSPORT MODULATORS AND METHODS USING THE SAME” (Drexel University, priority 2022, published 2025).
Read-outs that look alike come from different tables or passages of the source. One block for each compound: values may come before it.

Experiments:
[1] = tested on: Drosophila model of Huntington's disease; assay: Longevity assay; type: in vivo; conditions: Huntington's disease model flies; up to about day 40
Description: The longevity assay was performed according to Romero et al., Neuron, 57(1), 27-40 and Linford et al., JoVE (Journal of Visualized Experiments), (71). Briefly, 100 adult flies from wild type and HTT phenotype (male and female) were collected in each designated tube and fed with food containing the specific concentration of drug. Every 2-3 days the flies were moved into new vials with fresh food and drug. Dead flies were removed and the number of flies alive during each change is noted. The tunes were maintained until the last available fly and the data was plotted as a survival curve. FIG. 8A illustrates certain aspects of a longevity assay. FIG. 8B depicts the results of the longevity assay. […] The survival rates of the flies were recorded over time.

[2] = tested on: Drosophila model of Huntington's disease; assay: Larval olfactory associative learning test; type: in vivo; conditions: Elav x Htt larvae; 3.53 nM GT467, […] GT511
Description: FIG. 7A illustrates certain aspects of a larval olfactory associative learning used to test learning and memory. In FIG. 7A, larvae were trained with either a reinforcer solution containing sucrose (“LIN/SUC”) or a control of distilled water (“LIN/DW”). The trained larvae were then transferred to a dish having test odorant placed on one side and a control on the opposite side. […] The ΔRI (difference between LIN/SUC and LIN/DW performance scores) were then calculated for the high performers (FIG. 7B), low performers (FIG. 7C) and non-performers (FIG. 7D). […] Referring to FIG. 7A, Drosophila larvae were trained with either a reinforcer solution containing sucrose (“LIN/SUC”) or a control of distilled water (“LIN/DW”). The trained larvae were then transferred to a dish having test odorant placed on one side and a control on the opposite side. The ΔRI were then calculated for the high performers (FIG. 7B), low performers (FIG. 7C) and non-performers (FIG. 7D).

[3] = Pharmacokinetics of GT467 and GT511 in rats, plasma and brain (IV, IP, PO); type: in vivo, rat; conditions: for AUC0-t: 0 to 24 hrs
Description: Pharmacokinetics (PK) study for GT951 was conducted at Melior Discovery Services (Exton, PA). Fifteen male CD-1 mice 23-50 g was used for the study and the mice were housed 3 per cage. PK studies for GT467 and GT511 were conducted at Piramal Pharma solutions under approved protocols (Pune, India). One hundred and sixty-eight male Wistar rats were used for the study and housed 4 per cage. All animals were maintained on a standard 12 h light cycle and given free access to water and standard rodent chow. Food and water were available ad libitum. Animals were not fasted for any portion of the study and animals were acclimated to the animal care facility for seven days prior to the start of the experiment. The holding room and procedure room temperature was 21-23° C. and humidity was at 40-45% during the experiment (within the normal range of the care facility). All procedures were completed according to Institutional Animal Care and Use Committee (IACUC) approved protocols for housing and for PK studies.
Rats were dosed with the drug and blood and brain samples were collected at 0.5, 1, 2, 4, 8 and 24 h time points. Blood was collected via the sub-lingual vein under anesthesia into tubes containing Na2EDTA as an anticoagulant. Plasma fraction was separated by centrifuging the samples at 10,000 rpm for 5 min and the plasma was transferred to a cryo tube and stored at −80 C. Animals were euthanized and the brain was rapidly removed on ice and weighed. Brain was homogenized in Milli Q water and the homogenate was stored at −80 C until further use. Bioanalysis of the samples was performed using the SCIEX QTRAP 5500 LCMS/MS system with Phenomenex synergy C18 column and carbamazepine as internal standard. A methanol extraction procedure was used to precipitate the proteins in the sample. In addition to the internal standards, drug free plasma and brain samples were prepared for calibration and quantification standards. All samples were within the detectable range of the standard curves. 50 μl of the sample was added to 200 μl of the working solution of the internal standard and centrifuged for 5 min at 10,000 rpm. 60 μl of the supernatant was added to 140 μl of water and mixed well prior to transferring them for quantitative analysis on LCMS.
Specifically, rats were administered with GT467 or GT511 intraperitoneally (IP), intravenously (IV) or orally (PO). The concentration of the administered compounds measured at various timepoints in the plasma are depicted in FIGS. 4A and 4B, the concentrations of the administered compounds measured at various timepoints in the brain are depicted in FIGS. 5A and 5B.
Furthermore, pharmacokinetic parameters such as the peak concentration (Cmax), the time to reach the peak concentration (Tmax), the area under curve from time 0 to T (i.e., 24 hrs) (AUC0-t), the area under curve from time 0 to infinite (AUC0-∞), the half-life (t1/2), the oral clearance (CL/F), the volume of distribution of drug observed (Vz_F_obs), and the percentage of bioavailability (% Bioavailability) were also measured or calculated.

[4] = tested on: Drosophila model of Huntington's Disease (Htt model); assay: Larval locomotion assay in Drosophila Huntington's disease model; type: in vivo; conditions: third instar larvae; concentrations as low as two-fold below EC50 and one-fold below EC50
Description: FIG. 6A illustrate certain aspects of a locomotion assay used to assay the locomotive activities. […] FIGS. 6B and 6C depict the results of the locomotion assay results of wild-type Drosophila (“WT”), as well as Drosophila of a Huntington's disease model treated with vehicle (“Veh”) or with various concentrations of two exemplary GLT-1 modulators. […] The Drosophila Htt model is produced by crossing UAS-Htt([…]) male flies with elav-Gal4 virgin female flies. Both fly strains were purchased from Bloomington Drosophila Stock Center (BDSC, Indiana, USA). […] Locomotion assays were conducted by transferring the third instar larvae of flies to agar plates (FIG. 6A) and counting the number of grid lines crossed in 30 seconds.

[5] = tested on: R6/2 mice (Huntington disease model); assay: Novel object recognition assay; type: in vivo, mouse; conditions: 200 mg/kg, versus wild-type treated with vehicle
Description: Referring to FIG. 9B, to test for memory impairment a novel object recognition assay was performed. A 44×44 cm square shaped open field arena was used to perform this test at week 12 and week 15. The behavioral evaluation was performed in 2 sets, each set having equal number of animals. The animals were subjected to habituation a day prior to the commencement of test for 5 min followed by familiarization with similar objects for 10 min and tested with different objects for 10 min on the following day. The behavior was recorded under dim light and low noise conditions using an overhead camera. Cumulative duration with both the objects, total object exploration (sec), distance travelled (cm) was quantified using the Noldus ethovision XT 14 software.

[6] = tested on: R6/2 mice (Huntington disease model); assay: Open field locomotion test; type: in vivo, mouse; conditions: 200 mg/kg, versus wild-type treated with vehicle
Description: FIG. 9A depicts the results of a locomotion test. In the locomotion test of FIG. 9A, wildtype and R6/2 mice treated with vehicle or different doses of GTS467 (2, 4, and 10 mg/kg) or ceftriaxone (200 mg/kg) were subjected to the open field test to evaluate their locomotor abilities in a 44×44 cm and 43×43 cm square open field arena. Animals were placed individually in the open field arena and behavior was recorded for a period of 5 minutes under dim light and low noise conditions. Animal behavior was recorded using an overhead camera and the distance moved was recorded and quantified using the Noldus ethovision XT-14 software. FIG. 9B depicts the results of a memory task test. Referring to FIG. 9B, to test for memory impairment a novel object recognition assay was performed. A 44×44 cm square shaped open field arena was used to perform this test at week 12 and week 15. The behavioral evaluation was performed in 2 sets, each set having equal number of animals. […] The behavior was recorded under dim light and low noise conditions using an overhead camera. Cumulative duration with both the objects, total object exploration (sec), distance travelled (cm) was quantified using the Noldus ethovision XT 14 software. […]

[7] = male, Wistar, rat plasma, IP 10 mg/kg
[8] = male, Wistar, rat plasma, IV 5 mg/kg
[9] = male, Wistar, rat plasma, PO 10 mg/kg

AUC(0-inf) [3, 7]: 1130 ng·h/mL | Cmax [3, 7]: 450 ng/mL | AUC0-t ([3]; male, Wistar, rat plasma, IP 10 mg/kg, read-out: AUC0-t): 1070 ng·h/mL | CL/F ([3]; male, Wistar, rat plasma, IP 10 mg/kg, read-out: CL/F (converted)): 149 mL/min/kg | AUC(0-inf) [3, 8]: 995 ng·h/mL | Cmax [3, 8]: 567 ng/mL | AUC0-t ([3]; male, Wistar, rat plasma, IV 5 mg/kg, read-out: AUC0-t): 919 ng·h/mL | AUC(0-inf) [3, 9]: 399 ng·h/mL | Cmax [3, 9]: 42.9 ng/mL | AUC0-t ([3]; male, Wistar, rat plasma, PO 10 mg/kg, read-out: AUC0-t): 322 ng·h/mL | CL/F ([3]; male, Wistar, rat plasma, PO 10 mg/kg, read-out: CL/F (converted)): 505 mL/min/kg | AUC0-∞ ([3]; rat brain, IP 10 mg/kg): 467.11 ng·h/g | Tmax ([3]; rat brain, IP 10 mg/kg): 0.50 h | t1/2 ([3]; rat brain, IP 10 mg/kg): 2.26 h | AUC0-t ([3]; rat brain, IP 10 mg/kg): 429.85 ng·h/g | AUC0-∞ ([3]; rat brain, IV 5 mg/kg): 483.13 ng·h/g | Tmax ([3]; rat brain, IV 5 mg/kg): 0.50 h | t1/2 ([3]; rat brain, IV 5 mg/kg): 1.52 h | AUC0-t ([3]; rat brain, IV 5 mg/kg): 443.23 ng·h/g | Tmax ([3]; rat brain, PO 10 mg/kg): 1.38 h | AUC0-t ([3]; rat brain, PO 10 mg/kg): 183.00 ng·h/g | % Bioavailability ([3]; rat plasma, IP 10 mg/kg): 58.36% | Tmax ([3]; rat plasma, IP 10 mg/kg): 0.63 h | Vz_F_obs ([3]; rat plasma, IP 10 mg/kg): 79.2212 L/kg | t1/2 ([3]; rat plasma, IP 10 mg/kg): 6.22 h | CL/F ([3]; rat plasma, IV 5 mg/kg): 86.3097 mL/min/kg | Tmax ([3]; rat plasma, IV 5 mg/kg): 0.50 h | Vz_F_obs ([3]; rat plasma, IV 5 mg/kg): 41.46389 L/kg | t1/2 ([3]; rat plasma, IV 5 mg/kg): 6.08 h | % Bioavailability ([3]; rat plasma, PO 10 mg/kg): 17.51% | Tmax ([3]; rat plasma, PO 10 mg/kg): 3.25 h | Vz_F_obs ([3]; rat plasma, PO 10 mg/kg): 198.88289 L/kg | t1/2 ([3]; rat plasma, PO 10 mg/kg): 5.34 h
Structure (SMILES): COc1ccc(NC(=O)C(=O)N2CCN(c3ccccc3)CC2)cc1 [GT511, N-(4-methoxyphenyl)-2-oxo-2-(4-phenylpiperazin-1-yl)acetamide]
Survival rate [1]: significantly improved the survival rate | Olfactory learning performance (ΔRI) [2]: improved significantly | Plasma concentration and brain concentration by route of administration ([3]; rats, IP, IV, PO): higher plasma concentration and brain concentration than oral administration | Locomotor ability (grid lines crossed in 30 seconds) [4]: restores the Huntington's disease model flies' locomotor ability

Structure (SMILES): CO/N=C(\C(=O)N[C@@H]1C(=O)N2C(C(=O)O)=C(CSc3nc(=O)c(=O)[nH]n3C)CS[C@H]12)c1csc(N)n1 [ceftriaxone, (6R,7R)-7-{[(2Z)-2-(2-amino-1,3-thiazol-4-yl)->2-(methoxyimino)acetyl]amino}-3-{[(2-methyl-5,6-dioxo-1,2,5,6-tetrahydro-1,2,4-triazin-3-yl)thio]methyl}-8-oxo-5-thia-1-azabicyclo[4.2.0]oct-2-ene-2-carboxylic acid, reference compound]
Recognition index [5]: scored significantly lower in recognition index | Distance moved [6]: move significantly shorter distances
